Source: patent US9096598B2 (Merck Sharp & Dohme Corp., priority 2011, dated 2015)

Experiments:
JAK3 = target: T1, JAK3 (Homo sapiens, UniProt P52333); test: Jak Biochemical HTRF Assay (JAK3); conditions: recombinant purified GST-tagged catalytic domain, [ATP] 2.9 μM, values given as range classes
T1 construct: recombinant purified GST-tagged catalytic domain for each enzyme; purchased Invitrogen M4290
Summary of the method: (§1)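 GST-tagged recombinant catalytic domain and biotinylated peptide substrate were preincubated with compound for 30 min at room temperature in kinase buffer with 2 mM DTT and 0.05% BSA. ATP then started a 120 min reaction. Phosphopeptide was detected by HTRF (Eu-pY20/streptavidin-Dylight 650, 665/615 nm ratio), and IC50 came from a 4-parameter fit of percent inhibition.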

JAK2 = target: T2, JAK2 (Homo sapiens, UniProt O60674); test: Jak Biochemical HTRF Assay (JAK2); conditions: recombinant purified GST-tagged catalytic domain, [ATP] 8.5 μM, values given as range classes
T2 construct: recombinant purified GST-tagged catalytic domain for each enzyme; purchased Invitrogen M4290
T2 sequence (O60674 849-1124 limits assumed): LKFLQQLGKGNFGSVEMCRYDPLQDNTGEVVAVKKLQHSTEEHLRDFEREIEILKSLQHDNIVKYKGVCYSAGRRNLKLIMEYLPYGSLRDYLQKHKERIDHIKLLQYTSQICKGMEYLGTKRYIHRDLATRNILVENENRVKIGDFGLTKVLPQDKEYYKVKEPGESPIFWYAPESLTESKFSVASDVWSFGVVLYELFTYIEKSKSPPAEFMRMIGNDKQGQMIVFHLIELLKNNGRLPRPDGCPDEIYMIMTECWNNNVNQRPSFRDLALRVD
Summary of the method: as §1

T1 sequence (P52333 822-1111 limits assumed): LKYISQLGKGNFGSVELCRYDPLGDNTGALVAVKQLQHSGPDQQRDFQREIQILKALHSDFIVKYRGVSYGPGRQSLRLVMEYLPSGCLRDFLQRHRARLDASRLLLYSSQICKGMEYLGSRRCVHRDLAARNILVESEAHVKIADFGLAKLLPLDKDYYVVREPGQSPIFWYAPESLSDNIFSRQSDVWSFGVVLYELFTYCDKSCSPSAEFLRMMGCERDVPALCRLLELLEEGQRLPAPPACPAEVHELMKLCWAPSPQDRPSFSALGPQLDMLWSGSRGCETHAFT

CC(C)[C@@H](Nc1cncc(-c2c[nH]c3ncc(C(=O)N(C)C)cc23)c1)C(=O)NCC(F)(F)F [Example 3-1, (R)—N,N-dimethyl-3-(5-(3-methyl-1-oxo-1-(2,2,2-trifluoroethylamino)butan-2-ylamino)pyridin-3-yl)-1H-pyrrolo[2,3-b]pyridine-5-carboxamide]
IC50 (JAK3): 0.01 to 0.5 µM
IC50 (JAK2): > 0.5 µM

N#Cc1cnc2[nH]cc(-c3nncc(N[C@@H]4CCCC[C@@H]4C(=O)NCC(F)(F)F)n3)c2c1 [Example 1-22, (1S,2R)-2-{[3-(5-cyano-1H-pyrrolo[2,3-b]pyridin-3-yl)-1,2,4-triazin-5-yl]amino}-N-(2,2,2-trifluoroethyl)cyclohexane-carboxamide]
IC50 (JAK3): 0.01 to 0.5 µM
IC50 (JAK2): 0.01 to 0.5 µM

CC(C)[C@H](Nc1cncc(-c2c[nH]c3ncc(OCCN4CCOCC4)cc23)c1)C(=O)NCC(F)(F)F [Example 2-15, N~2~-{5-[5-(2-morpholin-4-ylethoxy)-1H-pyrrolo[2,3-b]pyridin-3-yl]pyridin-3-yl}-N-(2,2,2-trifluoroethyl)valinamide]
IC50 (JAK3): ≤ 0.01 µM
IC50 (JAK2): 0.01 to 0.5 µM

C[C@@H](Nc1cnnc(-c2c[nH]c3ncc(C#N)cc23)n1)C(=O)NCC(F)(F)F [Example 1-9, N~2~-[3-(5-cyano-1H-pyrrolo[2,3-b]pyridin-3-yl)-1,2,4-triazin-5-yl]-N-(2,2,2-trifluoroethyl)-D-alaninamide]
IC50 (JAK3): ≤ 0.01 µM
IC50 (JAK2): 0.01 to 0.5 µM

CC(C)(Nc1cnnc(-c2c[nH]c3ncc(C(N)=O)cc23)n1)C(=O)NCC(F)(F)F [Example 1-13, 3-[5-({1,1-dimethyl-2-oxo-2-[(2,2,2-trifluoroethyl)amino]ethyl}amino)-1,2,4-triazin-3-yl]-1H-pyrrolo[2,3-b]pyridine-5-carboxamide]
IC50 (JAK3): ≤ 0.01 µM
IC50 (JAK2): 0.01 to 0.5 µM

COC(=O)Nc1cnc2[nH]cc(-c3cncc(NC(C(=O)NCC(F)(F)F)C(C)C)c3)c2c1 (stereo not drawn) [Example 7-1, Methyl {3-[5-({3-methyl-1-oxo-1-[(2,2,2-trifluoroethyl)amino]butan-2-yl}amino)pyridin-3-yl]-1H-pyrrolo[2,3-b]pyridin-5-yl}carbamate]
IC50 (JAK3): 0.01 to 0.5 µM
IC50 (JAK2): 0.01 to 0.5 µM

CC(C)[C@H](Nc1cncc(-c2c[nH]c3ncc(OCc4ccccc4)cc23)c1)C(=O)NCC(F)(F)F [Example 2-4, N~2~-{5-[5-(benzyloxy)-1H-pyrrolo[2,3-b]pyridin-3-yl]pyridin-3-yl}-N-(2,2,2-trifluoroethyl)valinamide]
IC50 (JAK3): ≤ 0.01 µM
IC50 (JAK2): 0.01 to 0.5 µM

COc1cnc2[nH]cc(-c3cncc(N[C@H](C)C(=O)NCC(F)(F)F)c3)c2c1 [Example 1-31, N~2~-[5-(5-methoxy-1H-pyrrolo[2,3-b]pyridin-3-yl)pyridin-3-yl]-N-(2,2,2-trifluoroethyl)-D-alaninamide]
IC50 (JAK3): ≤ 0.01 µM
IC50 (JAK2): 0.01 to 0.5 µM

C[C@@H](Nc1cncc(-c2c[nH]c3ncc(Cl)c(F)c23)c1)C(=O)NCC(F)(F)F [Example 1-36, N~2~-[5-(5-chloro-4-fluoro-1H-pyrrolo[2,3-b]pyridin-3-yl)pyridin-3-yl]-N-(2,2,2-trifluoroethyl)-D-alaninamide]
IC50 (JAK3): 0.01 to 0.5 µM
IC50 (JAK2): > 0.5 µM
